{"source": "paper PMC5108082", "about": "“Pharmacokinetics, toxicity, and cytochrome P450 modulatory activity of plumbagin” (BMC Pharmacology & Toxicology, 2016)", "origin": "cited, not measured here", "key": {"[1]": {"tested_on": "K1 chloroquine-resistant P. falciparum", "settings": "K1 clone; read-out: mean IC50; cited from earlier work"}, "[2]": {"tested_on": "3D7 chloroquine-sensitive P. falciparum", "settings": "3D7 clone; read-out: mean IC50; cited from earlier work"}}}
{"smiles": "CCN(CC)CCCC(C)Nc1ccnc2cc(Cl)ccc12", "note": "(centres unmarked) [chloroquine]", "values": [{"measurement": "IC50", "setting": "[1]", "result": 130, "unit": "nM"}, {"measurement": "IC50", "setting": "[2]", "result": 8, "unit": "nM"}]}
{"smiles": "C=C[C@H]1C[N@@]2CC[C@H]1C[C@H]2[C@H](O)c1ccnc2ccc(OC)cc12", "note": "[quinine]", "values": [{"measurement": "IC50", "setting": "[1]", "result": 133, "unit": "nM"}, {"measurement": "IC50", "setting": "[2]", "result": 52, "unit": "nM"}]}
{"smiles": "C[C@H]1[C@H](OC(=O)CCC(=O)O)O[C@@H]2O[C@@]3(C)CC[C@H]4[C@H](C)CC[C@@H]1[C@@]24OO3", "note": "[artesunate]", "values": [{"measurement": "IC50", "setting": "[1]", "result": 1.5, "unit": "nM"}, {"measurement": "IC50", "setting": "[2]", "result": 2, "unit": "nM"}]}
{"smiles": "OC(c1cc(C(F)(F)F)nc2c(C(F)(F)F)cccc12)C1CCCCN1", "note": "(centres unmarked) [mefloquine]", "values": [{"measurement": "IC50", "setting": "[1]", "result": 12, "unit": "nM"}, {"measurement": "IC50", "setting": "[2]", "result": 10, "unit": "nM"}]}
